Results on 2 compounds are retold here after patent publication US20170051002A1, “Rebaudioside A Crystal And Its Preparation Method And Use” (Zhucheng Haotian Pharm Co., Ltd., priority 2014, published 2017).

The nature of series [1]: dynamic vapor adsorption (DVS) hygroscopicity. The class given is physicochemical. The note with it: conventional storage environment 40%-80% RH; 25° C. How it is done:
“Dynamic vapor adsorption (DVS)” is an instrument for measuring the hygroscopicity of a sample. Its measurement method is known in the field. For example, an instrument from Surface Measurement Systems, Ltd. may be used to collect data of humidity ranging from 5% to 95% at 25 degrees Celsius. The weight deviation under each humidity is no more than ±0.02% within 10 min. The rebaudioside A Form 7 of the present invention has particular stability, which is conducive to storage. […] In a preferred embodiment, the DVS isotherm of the resulting rebaudioside A crystal form 7 is substantially identical to FIG. 4. DVS: All dynamic vapour adsorption (DVS) experimental data of the present invention are measured by a DVS Intrinsic dynamic vapour sorption instrument from SMS, UK. Measurement conditions: Temperature: 25° C.; Relative humidity range: 5%-95%.

Series [2] can be described thus: storage stability at 25° C. RH 60% for 3 months (crystal form, HPLC purity). The format is physicochemical. The note with it: after standing for 3 months. The protocol:
The maximum solubility of the sample obtained according to the above-mentioned examples is about 30 mg/mL, and the form remains unchanged when stored at 25° C. RH 60% for 3 months from the results of HPLC analysis (purity is detected by high performance liquid chromatography, and the liquid chromatographic column and liquid chromatography used are the same as those specified by JECFA in 2010).
Perparation of sample solution: Precisely 50-100 milligrams of rebaudioside A were weighed and placed in a 50 milliliter volumetric flask, and then a solution of water and acetonitrile in a ratio of 7:3 were added for dissolution to a scale of 50 milliliter. Detection step: 5 μl of a sample solution are injected under the following conditions. Chromatographic Column: A Capcell pak C18 MG II chromatographic column from the Shiseido company or a Luna 5μ C18(2) 100A chromatographic column from the Phenomenex company or a chromatographic column of equivalent specifications (length: 250 millimeters; inner diameter: 4.6 millimeters; packing particle size: 5 μm). Mobile Phase: a mixture of acetonitrile and a sodium phosphate buffer (specification: 10 mmol/L, pH value of 2.6) in a ratio of 32:68. […] Chromatographic Column temperature: detection patterns are recorded for about 30 minutes at 40° C. […]

For series [3] the following is noted: large number of scientific experiments; cited from earlier work.

For the compound `C=C1C[C@@]23CC[C@H]4[C@@](C)(CCC[C@@]4(C)C(=O)O[C@@H]4O[C@H](CO)[C@@H](O)[C@H](O)[C@H]4O)[C@@H]2CC[C@]1(O[C@@H]1O[C@H](CO)[C@@H](O)[C@H](O[C@@H]2O[C@H](CO)[C@@H](O)[C@H](O)[C@H]2O)[C@H]1O[C@@H]1O[C@H](CO)[C@@H](O)[C@H](O)[C@H]1O)C3` [rebaudioside A Form 7, rebaudioside A], the “hygroscopicity in DVS patterns” value in series [1] is reported as “little hygroscopicity”.

Turning to `C=C1C[C@@]23CC[C@H]4[C@@](C)(CCC[C@@]4(C)C(=O)O[C@@H]4O[C@H](CO)[C@@H](O)[C@H](O)[C@H]4O)[C@@H]2CC[C@]1(O[C@@H]1O[C@H](CO)[C@@H](O)[C@H](O[C@@H]2O[C@H](CO)[C@@H](O)[C@H](O)[C@H]2O)[C@H]1O[C@@H]1O[C@H](CO)[C@@H](O)[C@H](O)[C@H]1O)C3` [Rebaudioside A], in series [2], the “purity change by HPLC compared to the starting material” value is given as “less than 0.5%”. In addition, in series [3], the “toxicity and side effect” value was “without any toxicity and side effect”.
